Measured values published in patent US12421282B2, “Compositions and methods for the treatment of metabolic and liver disorders” (priority 2021, dated 2025).
Read-outs that look alike come from different tables or passages of the source. *1 amine or outer side, *2 acyl side, *3 side chain or, on linkers, in order; H or OH if unused. Where a SMILES comes first, the peptide text is derived from it. Side-chain parts run from the residue outwards. [ ]: non-standard residue; d: D form. The star is where a group is joined. Nonadecanoyl(19-PO3H2) = O=C(CCCCCCCCCCCCCCCCCCP(=O)(O)O)*; γGlu = O=C(O)[C@H](CCC(=O)[*:2])N[*:1]; AEEA = NCCOCCOCC(=O)O; Aib = CC(C)(N)C(=O)O

Experiments:
[1] = set-up: species or system cynomolgus monkeys; settings: cynomolgus monkey, in vivo, sc, 0.2 mg/kg
Protocol: Subcutaneous (SC) dosing of the compounds in a vehicle of 0.1% bovine serum albumin in phosphate buffered saline solution was performed with male cynomolgus monkeys. […] Samples were obtained at 1, 4, 8, 12, 24, 48, 72, 96, 120, 168, 192, 240 and 336 hours after the single dose was administered.

[2] = molecular target: T1, human recombinant GIP receptor (Homo sapiens, UniProt P48546); assay: TagLite binding assay, GIP receptor, without and with 2% HSA
T1 sequence (P48546 22-466): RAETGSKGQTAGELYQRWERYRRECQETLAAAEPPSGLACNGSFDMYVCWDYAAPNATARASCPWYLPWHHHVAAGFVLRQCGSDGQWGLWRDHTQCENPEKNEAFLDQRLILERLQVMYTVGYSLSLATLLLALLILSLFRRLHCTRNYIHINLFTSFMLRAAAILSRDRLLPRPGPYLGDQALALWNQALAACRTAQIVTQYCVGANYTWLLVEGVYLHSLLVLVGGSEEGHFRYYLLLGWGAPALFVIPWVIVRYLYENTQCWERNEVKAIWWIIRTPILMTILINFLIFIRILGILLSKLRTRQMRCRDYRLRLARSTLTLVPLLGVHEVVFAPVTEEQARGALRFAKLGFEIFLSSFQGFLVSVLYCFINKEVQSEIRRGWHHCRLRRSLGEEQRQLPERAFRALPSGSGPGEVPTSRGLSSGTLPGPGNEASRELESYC
Text: (§1) Binding data for Compounds 15-25, for two human recombinant G protein coupled receptors, GLP-1 and GIP, was obtained using […]® binding assay and Epics Therapeutics cell lines. The binding assay was repeated in the presence of 2% human serum albumin (HSA). Compounds 16, 21, and 22 have an HSA ratio for the GLP-1 receptor of 7.1, 7.6, and 7.8, respectively. Compounds 15, 18, and 23 have an HSA ratio for the GIP receptor of 7.3, 4.3, and 6.4, respectively. A lower HSA ratio indicates greater binding affinity for the receptor than for albumin when compared to a compound with a greater HSA ratio.

[3] = molecular target: human recombinant GLP-1 receptor (Homo sapiens, UniProt P43220); assay: TagLite binding assay, GLP-1 receptor, without and with 2% HSA
Text: as §1

[4] = 2% human serum albumin, read-out: GIP receptor IC50 2% HSA
[5] = no HSA, read-out: GIP receptor IC50 No HSA
[6] = 2% human serum albumin, read-out: GLP-1 receptor IC50 2% HSA
[7] = no HSA, read-out: GLP-1 receptor IC50 No HSA

Chain of human recombinant GLP-1 receptor (P43220 24-463): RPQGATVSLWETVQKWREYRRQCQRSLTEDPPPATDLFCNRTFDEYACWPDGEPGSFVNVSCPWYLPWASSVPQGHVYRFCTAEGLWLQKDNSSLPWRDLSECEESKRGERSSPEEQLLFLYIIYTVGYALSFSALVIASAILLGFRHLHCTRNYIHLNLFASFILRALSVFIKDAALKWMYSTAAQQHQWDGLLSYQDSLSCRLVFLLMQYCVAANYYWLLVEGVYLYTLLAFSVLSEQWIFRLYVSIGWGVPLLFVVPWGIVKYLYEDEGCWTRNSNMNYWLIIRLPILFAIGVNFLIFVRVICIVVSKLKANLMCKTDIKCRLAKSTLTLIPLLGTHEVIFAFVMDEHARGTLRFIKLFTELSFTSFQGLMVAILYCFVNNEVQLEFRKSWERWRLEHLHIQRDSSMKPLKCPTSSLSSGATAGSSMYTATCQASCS

SMILES | AUC(0-inf) [1] [µg·h/mL] | AUC(0-t) [1] [µg·h/mL] | Cmax [1] [ng/mL] | Tmax [1] [h] | half-life [1] [h] | mean half life as compared to tirzepatide (in words) [1] | mean half life longer compared to tirzepatide [1] | IC50 [2, 4] [µM] | IC50 [2, 5] [µM] | IC50 [3, 6] [µM] | IC50 [3, 7] [µM]
CC[C@H](C)[C@H](NC(=O)[C@H](CCCCN)NC(=O)[C@H](CC(=O)O)NC(=O)[C@H](CC(C)C)NC(=O)C(C)(C)NC(=O)[C@@H](NC(=O)[C@H](CO)NC(=O)[C@H](Cc1ccc(O)cc1)NC(=O)[C@H](CC(=O)O)NC(=O)[C@H](CO)NC(=O)[C@@H](NC(=O)[C@H](Cc1ccccc1)NC(=O)[C@@H](NC(=O)CNC(=O)[C@H](CCC(=O)O)NC(=O)C(C)(C)NC(=O)[C@@H](N)Cc1ccc(O)cc1)[C@@H](C)O)[C@@H](C)O)[C@@H](C)CC)C(=O)N[C@@H](C)C(=O)N[C@@H](CCC(N)=O)C(=O)N[C@@H](CCCCNC(=O)COCCOCCNC(=O)COCCOCCNC(=O)CC[C@H](NC(=O)CCCCCCCCCCCCCCCCCCP(=O)(O)O)C(=O)O)C(=O)N[C@@H](C)C(=O)N[C@@H](Cc1ccccc1)C(=O)N[C@H](C(=O)N[C@@H](CCC(N)=O)C(=O)N[C@@H](Cc1c[nH]c2ccccc12)C(=O)N[C@@H](CC(C)C)C(=O)N[C@H](C(=O)N[C@@H](CCCNC(=N)N)C(=O)NCC(=O)NCC(=O)N1CCC[C@H]1C(=O)N[C@@H](CO)C(=O)N[C@@H](CO)C(=O)NCC(=O)N[C@@H](C)C(=O)N1CCC[C@H]1C(=O)N1CCC[C@H]1C(=O)N1CCC[C@H]1C(=O)N[C@@H](CO)C(N)=O)[C@@H](C)CC)C(C)C [Compound 20] (H-Y[Aib]EGTFTSDYSI[Aib]LDKIAQK([AEEA-AEEA-γGlu-Nonadecanoyl(19-PO3H2)])AFVQWLIRGGPSSGAPPPS-NH2) | 417 | 342 | 2060 | 13.3 | 132 | more than twice an long as compared to tirzepatide | at least 50% | 4.42 | 0.492 | 2.05 | 0.226
CC[C@H](C)[C@H](NC(=O)[C@H](CCCCN)NC(=O)[C@H](CC(=O)O)NC(=O)[C@H](CC(C)C)NC(=O)[C@H](Cc1ccccc1)NC(=O)[C@@H](NC(=O)[C@H](CO)NC(=O)[C@H](Cc1ccc(O)cc1)NC(=O)[C@H](CC(=O)O)NC(=O)[C@H](CO)NC(=O)[C@@H](NC(=O)[C@H](Cc1ccccc1)NC(=O)[C@@H](NC(=O)CNC(=O)[C@H](CCC(=O)O)NC(=O)C(C)(C)NC(=O)[C@@H](N)Cc1ccc(O)cc1)[C@@H](C)O)[C@@H](C)O)[C@@H](C)CC)C(=O)N[C@@H](C)C(=O)N[C@@H](CCC(N)=O)C(=O)N[C@@H](CCCCNC(=O)COCCOCCNC(=O)COCCOCCNC(=O)CC[C@H](NC(=O)CCCCCCCCCCCCCCCCCCP(=O)(O)O)C(=O)O)C(=O)N[C@@H](C)C(=O)N[C@@H](Cc1ccccc1)C(=O)N[C@H](C(=O)N[C@@H](CCC(N)=O)C(=O)N[C@@H](Cc1c[nH]c2ccccc12)C(=O)N[C@@H](CC(C)C)C(=O)N[C@H](C(=O)N[C@@H](C)C(=O)NCC(=O)NCC(=O)N1CCC[C@H]1C(=O)N[C@@H](CO)C(=O)N[C@@H](CO)C(=O)NCC(=O)N[C@@H](C)C(=O)N1CCC[C@H]1C(=O)N1CCC[C@H]1C(=O)N1CCC[C@H]1C(=O)N[C@@H](CO)C(N)=O)[C@@H](C)CC)C(C)C [Compound 18] (H-Y[Aib]EGTFTSDYSIFLDKIAQK([AEEA-AEEA-γGlu-Nonadecanoyl(19-PO3H2)])AFVQWLIAGGPSSGAPPPS-NH2) | 149 | 140 | 1340 | 13.3 | 81.1 | – | – | 2.85 | 0.659 | 1.52 | 0.166
